Measured values: BindingDB's records for doi:10.1016/s0960-894x(00)00026-3 (Universit&#224, 2000)

Experiment: Inhibition of Clostridium histolyticum collagenase using a linear regression program

SMILES	Ki
CC(C(=O)O)N(Cc1ccc([N+](=O)[O-])cc1)S(=O)(=O)c1ccc([N+](=O)[O-])cc1 (stereo not drawn) [2-[(4-Nitro-benzenesulfonyl)-(4-nitro-benzyl)-amino]-propionic acid]	5.3 µM
CC(C(=O)O)N(Cc1ccc([N+](=O)[O-])cc1)S(=O)(=O)C(Cl)(Cl)Cl (stereo not drawn) [2-[(4-Nitro-benzyl)-trichloromethanesulfonyl-amino]-propionic acid]	5.1 µM
CC(C(=O)NO)N(Cc1ccc([N+](=O)[O-])cc1)S(=O)(=O)c1c(F)c(F)c(F)c(F)c1F (stereo not drawn) [N-Hydroxy-2-[(4-nitro-benzyl)-pentafluorobenzenesulfonyl-amino]-propionamide]	5 µM
CC(C(=O)O)N(Cc1ccc([N+](=O)[O-])cc1)S(=O)(=O)c1c(F)c(F)c(F)c(F)c1F (stereo not drawn) [2-[(4-Nitro-benzyl)-pentafluorobenzenesulfonyl-amino]-propionic acid]	0.4 µM
CC(C(=O)NO)N(Cc1ccc([N+](=O)[O-])cc1)C(=O)Nc1ccc(F)cc1 (stereo not drawn) [2-[3-(4-Fluoro-phenyl)-1-(4-nitro-benzyl)-ureido]-N-hydroxy-propionamide]	12 µM
CC(C(=O)O)N(Cc1ccc([N+](=O)[O-])cc1)S(=O)(=O)c1cccc(C(=O)O)c1 (stereo not drawn) [3-[(1-Carboxy-ethyl)-(4-nitro-benzyl)-sulfamoyl]-benzoic acid]	2 µM
CC(C(=O)NO)N(Cc1ccc([N+](=O)[O-])cc1)S(=O)(=O)c1ccccc1[N+](=O)[O-] (stereo not drawn) [N-Hydroxy-2-[(2-nitro-benzenesulfonyl)-(4-nitro-benzyl)-amino]-propionamide]	13 µM
CC(C(=O)NO)N(Cc1ccc([N+](=O)[O-])cc1)S(=O)(=O)c1cccc(C(=O)O)c1 (stereo not drawn) [3-[(1-Hydroxycarbamoyl-ethyl)-(4-nitro-benzyl)-sulfamoyl]-benzoic acid]	9 µM
CC(C(=O)O)N(Cc1ccc([N+](=O)[O-])cc1)S(=O)(=O)c1cc(Cl)ccc1Cl (stereo not drawn) [2-[(2,5-Dichloro-benzenesulfonyl)-(4-nitro-benzyl)-amino]-propionic acid]	3.6 µM
CC(C(=O)NO)N(Cc1ccc([N+](=O)[O-])cc1)S(=O)(=O)c1cccc(NC(=O)OC(C)(C)C)c1 (stereo not drawn) [{3-[(1-Hydroxycarbamoyl-ethyl)-(4-nitro-benzyl)-sulfamoyl]-phenyl}-carbamic acid tert-butyl ester]	8 µM
CC(C(=O)O)N(Cc1ccc([N+](=O)[O-])cc1)S(=O)(=O)c1cccs1 (stereo not drawn) [2-[(4-Nitro-benzyl)-(thiophene-2-sulfonyl)-amino]-propionic acid]	2.1 µM
Cc1ccc(S(=O)(=O)N(Cc2ccc([N+](=O)[O-])cc2)C(C)C(=O)NO)cc1 (stereo not drawn) [N-Hydroxy-2-[(4-nitro-benzyl)-(toluene-4-sulfonyl)-amino]-propionamide]	36 µM
COc1ccc(S(=O)(=O)N(Cc2ccc([N+](=O)[O-])cc2)C(C)C(=O)NO)cc1NC(=O)OC(C)(C)C (stereo not drawn) [{5-[(1-Hydroxycarbamoyl-ethyl)-(4-nitro-benzyl)-sulfamoyl]-2-methoxy-phenyl}-carbamic acid tert-butyl ester]	8 µM
CC(C(=O)O)N(Cc1ccc([N+](=O)[O-])cc1)S(=O)(=O)c1cccc2ccccc12 (stereo not drawn) [2-[(Naphthalene-1-sulfonyl)-(4-nitro-benzyl)-amino]-propionic acid]	1.2 µM
CC(C(=O)NO)N(Cc1ccc([N+](=O)[O-])cc1)S(=O)(=O)C(F)(F)C(F)(F)C(F)(F)C(F)(F)C(F)(F)C(F)(F)C(F)(F)C(F)(F)F (stereo not drawn) [2-[(Heptadecafluorooctane-1-sulfonyl)-(4-nitro-benzyl)-amino]-N-hydroxy-propionamide]	7 µM
Cc1ccccc1S(=O)(=O)NC(=O)N(Cc1ccc([N+](=O)[O-])cc1)C(C)C(=O)NO (stereo not drawn) [N-hydroxy-2-[({[(2-methylphenyl)sulfonyl]amino}carbonyl)(4-nitrobenzyl)amino]propanamide]	8 µM
CC(C(=O)O)N(Cc1ccc([N+](=O)[O-])cc1)S(=O)(=O)C(F)(F)C(F)(F)C(F)(F)C(F)(F)F (stereo not drawn) [2-[(4-Nitro-benzyl)-(nonafluorobutane-1-sulfonyl)-amino]-propionic acid]	2.3 µM
CC(C(=O)NO)N(Cc1ccc([N+](=O)[O-])cc1)Sc1ccc([N+](=O)[O-])cc1 (stereo not drawn) [N-Hydroxy-2-[(4-nitro-benzyl)-(4-nitro-phenylsulfanyl)-amino]-propionamide]	11 µM
Cc1ccc(S(=O)(=O)NC(=O)N(Cc2ccc([N+](=O)[O-])cc2)C(C)C(=O)O)cc1 (stereo not drawn) [2-[({[(4-methylphenyl)sulfonyl]amino}carbonyl)(4-nitrobenzyl)amino]propanoic acid]	2.5 µM
CC(C(=O)NO)N(Cc1ccc([N+](=O)[O-])cc1)S(C)(=O)=O (stereo not drawn) [N-Hydroxy-2-[methanesulfonyl-(4-nitro-benzyl)-amino]-propionamide]	76 µM
CC(C(=O)NO)N(Cc1ccc([N+](=O)[O-])cc1)C(=O)Nc1ccc(Cl)c(Cl)c1 (stereo not drawn) [2-[3-(3,4-Dichloro-phenyl)-1-(4-nitro-benzyl)-ureido]-N-hydroxy-propionamide]	13 µM
CC(C(=O)O)N(Cc1ccc([N+](=O)[O-])cc1)S(=O)(=O)c1ccc([N+](=O)[O-])c(Cl)c1 (stereo not drawn) [2-[(3-Chloro-4-nitro-benzenesulfonyl)-(4-nitro-benzyl)-amino]-propionic acid]	3.3 µM

SMILES	Ki
CC(C(=O)O)N(Cc1ccc([N+](=O)[O-])cc1)C(=O)NS(=O)(=O)c1ccc(F)cc1 (stereo not drawn) [2-[({[(4-fluorophenyl)sulfonyl]amino}carbonyl)(4-nitrobenzyl)amino]propanoic acid]	3.3 µM
CC(C(=O)NO)N(Cc1ccc([N+](=O)[O-])cc1)S(=O)(=O)N(C)C (stereo not drawn) [2-[[(dimethylamino)sulfonyl](4-nitrobenzyl)amino]-N-hydroxypropanamide]	69 µM
COc1ccc(S(=O)(=O)N(Cc2ccc([N+](=O)[O-])cc2)C(C)C(=O)NO)cc1 (stereo not drawn) [N-Hydroxy-2-[(4-methoxy-benzenesulfonyl)-(4-nitro-benzyl)-amino]-propionamide]	21 µM
CC(C(=O)O)N(Cc1ccc([N+](=O)[O-])cc1)C(=O)Nc1cccc(Cl)c1 (stereo not drawn) [2-[3-(3-Chloro-phenyl)-1-(4-nitro-benzyl)-ureido]-propionic acid]	6.1 µM
CC(C(=O)O)N(Cc1ccc([N+](=O)[O-])cc1)S(=O)(=O)c1cccc2cccnc12 (stereo not drawn) [2-[(4-Nitro-benzyl)-(quinoline-8-sulfonyl)-amino]-propionic acid]	1.2 µM
COc1ccc(S(=O)(=O)N(Cc2ccc([N+](=O)[O-])cc2)C(C)C(=O)O)cc1NC(=O)OC(C)(C)C (stereo not drawn) [2-[(3-tert-Butoxycarbonylamino-4-methoxy-benzenesulfonyl)-(4-nitro-benzyl)-amino]-propionic acid]	2.1 µM
CC(C(=O)O)N(Cc1ccc([N+](=O)[O-])cc1)S(=O)(=O)c1cccc2c(N(C)C)cccc12 (stereo not drawn) [2-[(5-Dimethylamino-naphthalene-1-sulfonyl)-(4-nitro-benzyl)-amino]-propionic acid]	1.1 µM
CC(C(=O)O)N(Cc1ccc([N+](=O)[O-])cc1)S(=O)(=O)C(F)(F)C(F)(F)C(F)(F)C(F)(F)C(F)(F)C(F)(F)C(F)(F)C(F)(F)F (stereo not drawn) [2-[(Heptadecafluorooctane-1-sulfonyl)-(4-nitro-benzyl)-amino]-propionic acid]	1.8 µM
CC(C(=O)NO)N(Cc1ccc([N+](=O)[O-])cc1)S(=O)(=O)c1cc(Cl)ccc1Cl (stereo not drawn) [2-[(2,5-Dichloro-benzenesulfonyl)-(4-nitro-benzyl)-amino]-N-hydroxy-propionamide]	13 µM
Cc1ccc(S(=O)(=O)NC(=O)N(Cc2ccc([N+](=O)[O-])cc2)C(C)C(=O)NO)cc1 (stereo not drawn) [N-hydroxy-2-[({[(4-methylphenyl)sulfonyl]amino}carbonyl)(4-nitrobenzyl)amino]propanamide]	12 µM
CC(C(=O)NO)N(Cc1ccc([N+](=O)[O-])cc1)S(=O)(=O)C(F)(F)C(F)(F)C(F)(F)C(F)(F)F (stereo not drawn) [2-(N-(4-nitrobenzyl)-2,2,12,12,15,15,18,18,18-nonafluorobutan-2-ylsulfonamido)-N-hydroxypropanamide]	11 µM
CC(C(=O)O)N(Cc1ccc([N+](=O)[O-])cc1)S(=O)(=O)c1ccc(Br)cc1 (stereo not drawn) [2-[(4-Bromo-benzenesulfonyl)-(4-nitro-benzyl)-amino]-propionic acid]	10 µM
CC(C(=O)NO)N(Cc1ccc([N+](=O)[O-])cc1)C(=O)NS(=O)(=O)c1ccc(F)cc1 (stereo not drawn) [2-[({[(4-fluorophenyl)sulfonyl]amino}carbonyl)(4-nitrobenzyl)amino]-N-hydroxypropanamide]	9 µM
CC(=O)Nc1ccc(S(=O)(=O)N(Cc2ccc([N+](=O)[O-])cc2)C(C)C(=O)NO)cc1 (stereo not drawn) [2-[(4-Acetylamino-benzenesulfonyl)-(4-nitro-benzyl)-amino]-N-hydroxy-propionamide]	11 µM
CC(C(=O)NO)N(Cc1ccc([N+](=O)[O-])cc1)S(=O)(=O)c1ccc(F)cc1 (stereo not drawn) [2-[(4-Fluoro-benzenesulfonyl)-(4-nitro-benzyl)-amino]-N-hydroxy-propionamide]	35 µM
CC(C(=O)O)N(Cc1ccc([N+](=O)[O-])cc1)S(=O)(=O)c1ccc2ccccc2c1 (stereo not drawn) [2-[(Naphthalene-2-sulfonyl)-(4-nitro-benzyl)-amino]-propionic acid]	1.3 µM
CC(C(=O)NO)N(Cc1ccc([N+](=O)[O-])cc1)S(=O)(=O)c1cc(Cl)cc(Cl)c1O (stereo not drawn) [2-[(3,5-Dichloro-2-hydroxy-benzenesulfonyl)-(4-nitro-benzyl)-amino]-N-hydroxy-propionamide]	12 µM
CC(C(=O)O)N(Cc1ccc([N+](=O)[O-])cc1)S(=O)(=O)c1cc(Cl)cc(Cl)c1O (stereo not drawn) [2-[(3,5-Dichloro-2-hydroxy-benzenesulfonyl)-(4-nitro-benzyl)-amino]-propionic acid]	2.5 µM
CC(C(=O)O)N(Cc1ccc([N+](=O)[O-])cc1)S(=O)(=O)Cc1ccccc1 (stereo not drawn) [2-[(4-Nitro-benzyl)-phenylmethanesulfonyl-amino]-propionic acid]	15 µM
CC(C(=O)O)N(Cc1ccc([N+](=O)[O-])cc1)S(=O)(=O)c1ccccc1 (stereo not drawn) [2-[Benzenesulfonyl-(4-nitro-benzyl)-amino]-propionic acid]	21 µM
CC(C(=O)NO)N(Cc1ccc([N+](=O)[O-])cc1)S(=O)(=O)c1ccc([N+](=O)[O-])cc1 (stereo not drawn) [N-Hydroxy-2-[(4-nitro-benzenesulfonyl)-(4-nitro-benzyl)-amino]-propionamide]	10 µM
